In paper PMC10104742, “The Determination of Polymyxin B in Critically Ill Patients by the HPLC-MS/MS Method” (International Journal of Analytical Chemistry, 2023):
Positions of bridges follow the written chain, without caps; N, C: chain ends. Non-standard residues stand in square brackets, D forms with d. Residues, ends and D or L forms follow the SMILES beside them. *: point of attachment. X1 = CC[C@H](C)CCCCC(=O)*; Dab = NCC[C@H](N)C(=O)O

How the values were obtained:
[1] = Stability of PB in plasma QC samples (short-term, freeze-thaw, long-term); format: in vitro ADME, human; settings: for Stability of the sample (in words): human plasma sample
Description: Blank plasma (190 μL) and 10 μL working solution were mixed to prepare calibration curves of 8000, 6000, 5000, 2400, 1200, 600, 300, and 100 ng/ml for PB1/PB1-I, and 948.5, 711.4, 592.8, 284.6, 142.3, 71.1, 35.6, and 11.9 ng/mL for PB2/PB3. Similar to the QC standards, for PB1/PB1-I, the low QC (QCL), medium QC 1 (QCM1), medium QC 2 (QCM2), and high QC (QCH) were 200, 1000, 4000, and 7000 ng/ml, respectively. For PB2/PB3, QC standards were 23.7, 118.6, 474.3, and 830.0 ng/ml. First, a 100 μL calibration sample or QC sample was removed; 10 μL IS solution, 200 μL ACN with 0.1% FA (v/v), and 0.2% TFA (v/v/v) were added successively. The samples were vortexed for 2 min to make precipate the protein fully, then centrifugated at 18800 g at 4 ℃ for 15 min. About 200 μL of the supernatant was sucked and transferred into 96-well plates for analysis.
(§1) Volume of 200 μL ACN with 0.2% TFA and 0.1% FA was added to a 100 μL plasma sample containing 10 μL IS solution, vortexed for 2 min, and centrifugated at 18800 g at 4°C for 15 min. The supernatant was then transferred to a 96-well plate for analysis.
(§2) QC samples (QCL, QCM1, QCM2, and QCH) were used to investigate the stability of the stock solutions, working solutions, and samples. Each QC was set with three parallels. The stability of plasma samples stored at room temperature (25°C) for 4 h, at 4°C in a refrigerator for 24 h, at −20°C for 37 days, and at −80°C for 97 days was investigated. The freeze-thaw stability of −20°C and −80°C freeze-thaw cycles at three times each was investigated. The stability of the stock and working solutions stored at −80°C for 97 days was investigated. The accuracy of the quality control sample should be within ±15% of the nominal concentration; the precision should be within 15%.

[2] = Stability of extracted supernatant in the autosampler; format: physicochemical; settings: extracted supernatant in automatic sampler, 24 h
Description: The LC-MS/MS system consisted of an Agilent 1260 HPLC system equipped with a cooled autosampler (4°C) and an Agilent 6460 electrospray ionization-triple quadrupole mass spectrometer (Agilent Technologies, USA). The chromatographic column was BEH C18 (Waters, 2.1 × 50 mm, 1.7 μm) (Waters Corporation, USA). Ultrapure water was prepared using the Milli-Q Direct 8 (E. Merck, Darmstadt, Germany) water purification system. A Heraeus Multifuge X1R (Thermo Fisher Scientific, USA) high-speed refrigerated centrifuge was used for the centrifugation. SHIMADZU-AUW120D (Shimadzu Corporation, Japan) was used for the weighting.
as §1
as §2, with “The stability of the stock and working solutions stored at −80°C for 97 days was investigated. The accuracy of the quality control sample should be within ±15% of the nominal concentration; the precision should be within 15%.” left out

[3] = Stability of working and stock solutions; format: physicochemical
Description: Standard and IS stock solutions were prepared in Milli-Q water containing 1% FA (v/v) at 1 mg/mL (with all substances) and subpacked in EP tubes. Working solutions were diluted from the stock solution. The concentrations of PB1 in the PB1-I's working solution were 160, 120, 100, 48, 24, 12, 6, and 2 μg/mL. The quality control (QC) working solutions were 140, 80, 20, and 4 μg/mL. The IS solution, polymyxin E2, was diluted in 1% FA water to 7.5 μg/mL. All solutions were stored at −80°C.
as §2

CC[C@H](C)CCCCC(=O)N[C@@H](CCN)C(=O)N[C@H](C(=O)N[C@@H](CCN)C(=O)N[C@H]1CCNC(=O)[C@H]([C@@H](C)O)NC(=O)[C@H](CCN)NC(=O)[C@H](CCN)NC(=O)[C@H](CC(C)C)NC(=O)[C@@H](Cc2ccccc2)NC(=O)[C@H](CCN)NC1=O)[C@@H](C)O [PB, Polymyxin B] (X1-[Dab]T[Dab][Dab][Dab][dF]L[Dab][Dab]T; lactam 4-C)
stable: Stability of the sample (in words) ([1]; 4°C, 24 h) | Stability of the sample (in words) ([1]; room temperature, 4 h) | Stability of the sample (in words) ([1]; −20°C, three freeze-thaw cycles) | Stability of the sample (in words) ([1]; −80°C, three freeze-thaw cycles) | Stability of the samples (in words) ([1]; human plasma samples stored at −20°C for 37 days) | Stability of the samples (in words) ([1]; human plasma samples stored at −80°C for 97 days) | Stability of the extracted supernatant (in words) [2] | Stability of the stock solution (in words) ([3]; stock solution at −80°C for 97 days) | Stability of the working solution (in words) ([3]; working solution at −80°C for 97 days) | Stability of the working solution (in words) ([3]; working solution stored at −20°C for 18 days)
